Assay results: patent US20150105252A1, “SUBSTITUTED PYRAZOLES AS HERBICIDES” (E I DU PONT DE NEMOURS AND COMPANY, priority 2013, published 2015)

Columns and labels:
[1] = system: velvetleaf; assay: Test A postemergence; assay type: in vivo, Abutilon theophrasti
In short: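 After sowing in a sand–loam mix, pots received compound preemergence by directed soil spray, or postemergence once plants reached the one- to two-leaf stage (2–10 cm). Formulation contained surfactant in a non-phytotoxic solvent. Injury was scored visually after ~10 greenhouse days, 0–100 scale.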

[2] = system: blackgrass; assay: Test C preemergence; assay type: in vivo, Alopecurus myosuroides; settings: for Blackgrass plant response rating: preemergence
In short: (§1)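 Pre- and postemergence greenhouse screen; vehicle was a non-phytotoxic solvent mix with surfactant. Preemergence: treatment applied right after sowing into loam and sand. Postemergence: treated at 1–4 leaves. Visual rating at 13–15 days, 100 = complete control.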

[3] = system: wheat; assay: Test C preemergence; assay type: in vivo, Triticum aestivum; settings: for Wheat plant response rating: preemergence
In short: as §1

[4] = system: galium; assay: Test C preemergence; assay type: in vivo, Galium aparine; settings: for Galium plant response rating: preemergence
In short: as §1

[5] = system: corn; assay: Test C preemergence; assay type: in vivo, Zea mays; settings: for Corn plant response rating: preemergence
In short: as §1

[6] = system: pigweed; assay: Test C preemergence; assay type: in vivo, Amaranthus retroflexus; settings: for Pigweed plant response rating: preemergence
In short: as §1

[7] = system: ragweed; assay: Test C preemergence; assay type: in vivo, Ambrosia elation; settings: for Ragweed plant response rating: preemergence
In short: as §1

[8] = system: soybean; assay: Test C preemergence; assay type: in vivo, Glycine max; settings: for Soybean plant response rating: preemergence
In short: as §1

[9] = system: oilseed rape; assay: Test C preemergence; assay type: in vivo, Brassica napus; settings: for Oilseed Rape plant response rating: preemergence
In short: as §1

[10] = system: waterhemp; assay: Test C preemergence; assay type: in vivo, Amaranthus rudis; settings: for Waterhemp plant response rating: preemergence
In short: as §1

[11] = system: wheat; assay: Test C postemergence; assay type: in vivo, Triticum aestivum
In short: as §1

[12] = system: foxtail, giant; assay: Test C postemergence; assay type: in vivo, Setaria faberii
In short: as §1

[13] = system: johnsongrass; assay: Test C postemergence; assay type: in vivo, Sorghum halepense
In short: as §1

[14] = system: lambsquarters; assay: Test C postemergence; assay type: in vivo, Chenopodium album
In short: as §1

[15] = system: chickweed; assay: Test C postemergence; assay type: in vivo, Stellaria media
In short: as §1

[16] = 31 g ai/ha, visual rating, scale 0 to 100 (0 no effect, 100 complete control), 13 to 15 days
[17] = 62 g ai/ha, scale 0 to 100 (0 no effect, 100 complete control), 13 to 15 days
[18] = 125 g ai/ha, scale 0 to 100, 0 is no effect, 100 is complete control
[19] = Postemergence, 31 g ai/ha, visually evaluated after 13 to 15 days
[20] = postemergence, 62 g ai/ha, scale 0 to 100
[21] = postemergence, 250 g ai/ha, scale 0 to 100 (0 no effect, 100 complete control)
[22] = postemergence, 125 g ai/ha, scale 0 to 100, 0 no effect, 100 complete control

For `CCc1cc(C(=O)NCC(F)(F)F)nn1Cc1cc(C(F)(F)F)nn1C` [Compound 108, 5-ethyl-1-[[1-methyl-3-(trifluoromethyl)-1H-pyrazole-5-yl]methyl]-N-(2,2,2-trifluoroethyl)-1H-pyrazole-3-carboxamide], the “Velvetleaf plant response rating” value ([1]; Postemergence, 500 g ai/ha, visual rating after approx. 10 days, 0 to 100 scale (0 no effect, 100 complete control)) was 100, the “Velvetleaf plant response rating” value ([1]; postemergence, 125 g ai/ha, about 10 days, visual rating on 0 to 100 scale (0 no effect, 100 complete control)) was 60 and the “Plant response rating (scale of 0 to 100), Blackgrass” value ([2]; Preemergence, 250 g ai/ha) was 100. The “Blackgrass plant response rating” value [2, 16] was 100, the “Blackgrass plant response rating” value [2, 17] was 100 and the “Blackgrass plant response rating” value [2, 18] was 100. For the same molecule, the “Plant response rating (scale of 0 to 100), Wheat” value ([3]; Preemergence, 250 g ai/ha) was 70, the “Wheat plant response rating” value [3, 16] was 10 and the “Wheat plant response rating” value [3, 17] was 10. The “Wheat plant response rating” value [3, 18] was 60, the “Plant response rating (scale of 0 to 100), Galium” value ([4]; Preemergence, 250 g ai/ha) was 100 and the “Galium plant response rating” value [4, 16] was 85. For the same molecule, the “Galium plant response rating” value [4, 17] was 100, the “Galium plant response rating” value [4, 18] was 100 and the “Plant response rating (scale of 0 to 100), Corn” value ([5]; Preemergence, 250 g ai/ha) was 95. The “Corn plant response rating” value [5, 16] was 5, the “Corn plant response rating” value [5, 17] was 30 and the “Corn plant response rating” value [5, 18] was 95. The “Plant response rating (scale of 0 to 100), Pigweed” value ([6]; Preemergence, 250 g ai/ha) was 100, the “Pigweed plant response rating” value [6, 16] was 100 and the “Pigweed plant response rating” value [6, 17] was 100. The “Pigweed plant response rating” value [6, 18] was 100, the “Plant response rating (scale of 0 to 100), Ragweed” value ([7]; Preemergence, 250 g ai/ha) was 100 and the “Ragweed plant response rating” value [7, 16] was 95. The “Ragweed plant response rating” value [7, 17] was 95, the “Ragweed plant response rating” value [7, 18] was 95 and the “Plant response rating (scale of 0 to 100), Soybean” value ([8]; Preemergence, 250 g ai/ha) was 98. For the same molecule, the “Soybean plant response rating” value [8, 16] was 20, the “Soybean plant response rating” value [8, 17] was 90 and the “Soybean plant response rating” value [8, 18] was 95. The “Plant response rating (scale of 0 to 100), Oilseed Rape” value ([9]; Preemergence, 250 g ai/ha) was 100, the “Oilseed Rape plant response rating” value [9, 16] was 90 and the “Oilseed Rape plant response rating” value [9, 17] was 98. For the same molecule, the “Oilseed Rape plant response rating” value [9, 18] was 100, the “Plant response rating (scale of 0 to 100), Waterhemp” value ([10]; Preemergence, 250 g ai/ha) was 100 and the “Waterhemp plant response rating” value [10, 16] was 98. The “Waterhemp plant response rating” value [10, 17] was 100, the “Waterhemp plant response rating” value [10, 18] was 100 and the “Plant response rating (scale of 0 to 100 where 0 is no effect and 100 is complete control), Wheat” value [11, 19] was 0. For the same molecule, the “Wheat plant response rating” value [11, 20] was 5, the “Plant response rating, Wheat” value [11, 21] was 20 and the “Plant response rating, Wheat” value [11, 22] was 10. The “Plant response rating (scale of 0 to 100 where 0 is no effect and 100 is complete control), Foxtail, Giant” value [12, 19] was 10, the “Foxtail, Giant plant response rating” value [12, 20] was 30 and the “Plant response rating, Foxtail, Giant” value [12, 21] was 45. For the same molecule, the “Plant response rating, Foxtail, Giant” value [12, 22] was 40, the “Plant response rating (scale of 0 to 100 where 0 is no effect and 100 is complete control), Johnsongrass” value [13, 19] was 0 and the “Johnsongrass plant response rating” value [13, 20] was 0. The “Plant response rating, Johnsongrass” value [13, 21] was 5, the “Plant response rating, Johnsongrass” value [13, 22] was 0 and the “Plant response rating (scale of 0 to 100 where 0 is no effect and 100 is complete control), Lambsquarters” value [14, 19] was 60. For the same molecule, the “Lambsquarters plant response rating” value [14, 20] was 60, the “Plant response rating, Lambsquarters” value [14, 21] was 85 and the “Plant response rating, Lambsquarters” value [14, 22] was 80. For the same molecule, the “Plant response rating (scale of 0 to 100 where 0 is no effect and 100 is complete control), Chickweed” value [15, 19] was 85, the “Chickweed plant response rating” value [15, 20] was 100 and the “Plant response rating, Chickweed” value [15, 21] was 100. For the same molecule, the “Plant response rating, Chickweed” value [15, 22] was 100.
